In publication PMC9728158, “Two Flavonoid-Based Compounds from Murraya paniculata as Novel Human Carbonic Anhydrase Isozyme II Inhibitors Detected by a Resazurin Yeast-Based Assay” (Journal of Microbiology and Biotechnology, 2019):

Target: T1, human carbonic anhydrase isozyme II (hCAII) (Homo sapiens, UniProt P00918)
T1 construct: gene CA2
Assay: in vitro esterase assay (4-NPA hydrolysis, […] nm); also yeast-based hCAII assay
Assay type: biochemical

| Structure (SMILES) | IC50 [µM] |
| --- | --- |
| COc1cc(-c2cc(=O)c3c(OC)c(OC)c(OC)c(OC)c3o2)cc(OC)c1OC [compound 4, 5,6,7,8,3′,4′,5′-heptamethoxyflavone] | 24 |
| COc1cc(-c2oc3c(OC)c(OC)cc(OC)c3c(=O)c2OC)cc(OC)c1OC [compound 9, 3,5,7,8,3′,4′,5′-Heptamethoxyflavone] | 34.3 |
